Laboratory results: publication PMC11880385 (Nature Communications, 2025)
Values after ≈ are worked out from the molar mass of the structure shown.

Assays:
Cryptococcus neoformans = conditions: cited from earlier work
C. albicans (CaSS1) = test: C. albicans growth inhibition, two-fold dose-response assay; conditions: Candida albicans, 48 h, read-out: C. albicans MIC80
[1] = test system: echinocandin-resistant C. albicans strain (DPL15; FKS1^T1922C/FKS1^T1922C); test: Caspofungin potentiation dose-response assay in echinocandin-resistant strain; conditions: sub-inhibitory caspofungin (3 µg/mL); YPD, 30 °C, 48 h
C. auris = conditions: cited from earlier work
[2] = test system: C. albicans (TEF1p-GFP) in J774A.1 cells; test: Visualization of C. albicans filamentation in macrophages; conditions: 4 h incubation; 0.94, 7.5 or 30 µM
Aspergillus fumigatus = conditions: cited from earlier work
[3] = test system: C. albicans (TEF1p-GFP) in co-culture with J774A.1 cells; test: C. albicans growth in co-culture with macrophages; conditions: 16 h post-infection
[4] = test system: J774A.1 cells infected with C. albicans (SC5314); test: Macrophage killing assay
[5] = Mouse liver microsomal stability assay; conditions: mouse liver microsomes
[6] = test system: Nakaseomyces glabratus (formerly referred to as Candida glabrata); conditions: cited from earlier work

## Cc1ccc2c(-c3ccncc3)c(-c3ccc(F)cc3)nn2c1 [GW, GW461484A, reference compound]
Cryptococcus neoformans
  antifungal activity: possesses antifungal activity
C. albicans (CaSS1)
  MIC80: 12.5 µM (≈ 3.79 µg/mL)
[1]
  reduction in MIC80 upon addition of caspofungin: ≥ 32 fold
C. auris
  antifungal activity: possesses antifungal activity
[2]
  filamentation of C. albicans: inhibited filamentation
Aspergillus fumigatus
  single-agent antifungal activity in vitro: no single-agent antifungal activity was observed
[3]
  reduction of C. albicans growth in co-culture: most effective
[4]; 30 µM
  macrophage viability in co-culture: restoring full viability
[4]; Mus musculus, J774.A1, 24 h, read-out: IC50 of rescuing macrophage viability
  IC50: 2050 nM
[5]; 30 minutes, 1 μM
  metabolic stability category: unstable (compound concentration remaining in the microsomal suspension after incubation for 30 minutes was ≤ 50% of the starting concentration (1 μM))
[5]; mouse
  remaining at 0.5 h, 1 µM: < 1%
[6]
  single-agent antifungal activity in vitro: no single-agent antifungal activity was observed
